Earlier results as cited in paper PMC10323144, “Garbage in, garbage out: how reliable training data improved a virtual screening approach against SARS-CoV-2 MPro” (Frontiers in Pharmacology, 2023).

system: MPro; settings: compiled from peer-reviewed sources (287 compounds) ref the 18 original articles; cited from earlier work

Molecule	Class (MPro activity class)
CCCC[C@H](NC(=O)[C@@H]1[C@@H]2[C@H](CN1C(=O)[C@@H](NC(=O)NC1(CS(=O)(=O)C(C)(C)C)CCCCC1)C(C)(C)C)C2(C)C)C(=O)C(=O)NC1CC1 [Narlaprevir]	1 (Compounds with IC50 < 10 µM or with a percentage of enzyme inhibition >50% at 10 µM were labelled as ACTIVE)
O=c1cc(-c2ccccc2)oc2ccc(O)c(O)c12 [5,6-Dihydroxyflavone]	0 (compounds with IC50 > 20 μM, percentage inhibition <80% at 20 µM or 50 μM, or percentage enzyme inhibition <50% at 10 µM were labelled as INACTIVE)
O=c1sn(-c2cccc3ccccc23)c(=O)n1Cc1ccccc1 [Tideglusib]	1 (Compounds with IC50 < 10 µM or with a percentage of enzyme inhibition >50% at 10 µM were labelled as ACTIVE)
Cc1cc(Cl)cc(CC2CCN(C(=O)CCl)CC2)c1 [NIR-THE-0d6461ce-8]	1 (Compounds with IC50 < 10 µM or with a percentage of enzyme inhibition >50% at 10 µM were labelled as ACTIVE)
COc1cccc(N2CCN(C(=O)c3cc(=O)[nH]c4ccccc34)CC2)c1 [BEN-DND-7e92b6ca-12]	1 (Compounds with IC50 < 10 µM or with a percentage of enzyme inhibition >50% at 10 µM were labelled as ACTIVE)
Carmofur	1 (Compounds with IC50 < 10 µM or with a percentage of enzyme inhibition >50% at 10 µM were labelled as ACTIVE)
CCC(CC)C(NC(C)=O)C1C(N=C(N)N)CC(C(=O)O)C1O (stereo not shown) [Peramivir]	0 (compounds with IC50 > 20 μM, percentage inhibition <80% at 20 µM or 50 μM, or percentage enzyme inhibition <50% at 10 µM were labelled as INACTIVE)
CCC(C)n1ncn(-c2ccc(N3CCN(c4ccc(OCC5COC(Cn6cncn6)(c6ccc(Cl)cc6Cl)O5)cc4)CC3)cc2)c1=O (stereo not shown) [Itraconazole]	0 (compounds with IC50 > 20 μM, percentage inhibition <80% at 20 µM or 50 μM, or percentage enzyme inhibition <50% at 10 µM were labelled as INACTIVE)
O=C(CCl)N1CCN(S(=O)(=O)c2cccs2)CC1 [LON-WEI-8f408cad-3]	1 (Compounds with IC50 < 10 µM or with a percentage of enzyme inhibition >50% at 10 µM were labelled as ACTIVE)
O=C(O)[C@H]1O[C@@H](Oc2cc3oc(-c4ccc(O)cc4)cc(=O)c3c(O)c2O)[C@H](O)[C@@H](O)[C@@H]1O [Scutellarin]	0 (compounds with IC50 > 20 μM, percentage inhibition <80% at 20 µM or 50 μM, or percentage enzyme inhibition <50% at 10 µM were labelled as INACTIVE)
C=C(CC)C(=O)c1ccc(OCC(=O)O)c(Cl)c1Cl [ethacrynic acid]	0 (compounds with IC50 > 20 μM, percentage inhibition <80% at 20 µM or 50 μM, or percentage enzyme inhibition <50% at 10 µM were labelled as INACTIVE)
O=C(CCl)N1CC2CC1CN2Cc1cccc(Cl)c1 (stereo not shown) [DAN-LON-a5fc619e-8]	1 (Compounds with IC50 < 10 µM or with a percentage of enzyme inhibition >50% at 10 µM were labelled as ACTIVE)
COc1cc(C2OCC3C(c4ccc(OC5OC(CO)C(O)C(O)C5O)c(OC)c4)OCC23)ccc1O (single isomer, unassigned; (+)) [(+)-Pinoresinol-4-O-β-D-glucopyraside]	0 (compounds with IC50 > 20 μM, percentage inhibition <80% at 20 µM or 50 μM, or percentage enzyme inhibition <50% at 10 µM were labelled as INACTIVE)
CC(O)c1cc(C(=O)N[C@@H](C)Cn2ccc(-c3ccc(C#N)c(Cl)c3)n2)[nH]n1 (stereo partly shown) [DAROLUTAMIDE]	0 (compounds with IC50 > 20 μM, percentage inhibition <80% at 20 µM or 50 μM, or percentage enzyme inhibition <50% at 10 µM were labelled as INACTIVE)
O=c1[nH]cc(-c2cc(-c3cc(Cl)cc(OCc4c(F)cccc4F)c3)c(=O)n(-c3cccnc3)c2)c(=O)[nH]1 [compound 20]	1 (Compounds with IC50 < 10 µM or with a percentage of enzyme inhibition >50% at 10 µM were labelled as ACTIVE)
Cc1[nH]c2ccccc2c1C=NN(C)C(=O)c1ccc2c(c1)OCO2 [LASSBio-1649 (13)]	0 (compounds with IC50 > 20 μM, percentage inhibition <80% at 20 µM or 50 μM, or percentage enzyme inhibition <50% at 10 µM were labelled as INACTIVE)
N#Cc1ccccc1-c1cc(-c2cccc(Cl)c2)c(=O)n(-c2cccnc2)c1 [compound 2]	1 (Compounds with IC50 < 10 µM or with a percentage of enzyme inhibition >50% at 10 µM were labelled as ACTIVE)
O=C1c2ccccc2NC(c2cc([N+](=O)[O-])ccc2O)N1N=Cc1cc([N+](=O)[O-])ccc1O (stereo not shown) [QZ5]	0 (compounds with IC50 > 20 μM, percentage inhibition <80% at 20 µM or 50 μM, or percentage enzyme inhibition <50% at 10 µM were labelled as INACTIVE)
C=CC(=O)N(c1ccc(C(C)(C)C)cc1)C(C(=O)Nc1ccc(OC)cc1OC)c1cccnc1 (stereo not shown) [LON-WEI-adc59df6-45]	1 (Compounds with IC50 < 10 µM or with a percentage of enzyme inhibition >50% at 10 µM were labelled as ACTIVE)
Phillyrin	0 (compounds with IC50 > 20 μM, percentage inhibition <80% at 20 µM or 50 μM, or percentage enzyme inhibition <50% at 10 µM were labelled as INACTIVE)

Molecule	Class (MPro activity class)
N#Cc1cc(CN2CCN(C(=O)CCl)CC2)c2ccccc2c1 [DAR-DIA-fb20be43-6]	1 (Compounds with IC50 < 10 µM or with a percentage of enzyme inhibition >50% at 10 µM were labelled as ACTIVE)
CCNc1ncc(C#N)cc1CN1CCN(C(=O)CCl)CC1 [DAR-DIA-fb20be43-4]	1 (Compounds with IC50 < 10 µM or with a percentage of enzyme inhibition >50% at 10 µM were labelled as ACTIVE)
Cc1cnc(C(=O)N[C@H]2CCCCC/C=C\[C@@H]3C[C@@]3(C(=O)NS(=O)(=O)C3CC3)NC(=O)[C@@H]3C[C@@H](Oc4nc5ccccc5c5ccccc45)CN3C2=O)cn1 [Paritaprevir]	0 (compounds with IC50 > 20 μM, percentage inhibition <80% at 20 µM or 50 μM, or percentage enzyme inhibition <50% at 10 µM were labelled as INACTIVE)
NC[C@H]1O[C@H](O[C@H]2[C@H](O[C@@H]3O[C@H](CO)[C@@H](O)[C@H]3O)[C@@H](O)[C@H](N)C[C@@H]2N)[C@H](N)[C@@H](O)[C@@H]1O [Ribostamycin]	0 (compounds with IC50 > 20 μM, percentage inhibition <80% at 20 µM or 50 μM, or percentage enzyme inhibition <50% at 10 µM were labelled as INACTIVE)
O=c1[nH]cc(-c2cc(-c3cc(Cl)cc(OCc4ccccc4Cl)c3)c(=O)n(-c3cccnc3)c2)c(=O)[nH]1 [compound 21]	1 (Compounds with IC50 < 10 µM or with a percentage of enzyme inhibition >50% at 10 µM were labelled as ACTIVE)
O=c1c(O)c(-c2ccc(O)c(O)c2)oc2cc(O)c(O)c(O)c12 [Quercetagetin]	1 (Compounds with IC50 < 10 µM or with a percentage of enzyme inhibition >50% at 10 µM were labelled as ACTIVE)
C=C[C@@H]1C[C@]1(NC(=O)[C@@H]1C[C@@H](Oc2ncc(OC)c3ccc(Cl)cc23)CN1C(=O)[C@@H](NC(=O)OC(C)(C)C)C(C)(C)C)C(=O)NS(=O)(=O)C1CC1 [Asunaprevir]	0 (compounds with IC50 > 20 μM, percentage inhibition <80% at 20 µM or 50 μM, or percentage enzyme inhibition <50% at 10 µM were labelled as INACTIVE)
COc1ccc(O)c(C=NN2C(=O)c3ccccc3NC2c2cc(OC)ccc2O)c1 (stereo not shown) [QZ4]	1 (Compounds with IC50 < 10 µM or with a percentage of enzyme inhibition >50% at 10 µM were labelled as ACTIVE)
COc1cc2c(cc1Cc1cccc(Cl)c1F)c(=O)c(C(=O)O)cn2[C@H](CO)C(C)C [Elvitegravir]	0 (compounds with IC50 > 20 μM, percentage inhibition <80% at 20 µM or 50 μM, or percentage enzyme inhibition <50% at 10 µM were labelled as INACTIVE)
CO[C@@H]1[C@H](OC(=O)/C=C/C=C/C=C/C=C/C(=O)O)CC[C@]2(CO2)[C@H]1[C@@]1(C)O[C@@H]1CC=C(C)C [Fumagillin]	0 (compounds with IC50 > 20 μM, percentage inhibition <80% at 20 µM or 50 μM, or percentage enzyme inhibition <50% at 10 µM were labelled as INACTIVE)
NC(=O)[C@@H](CCC(F)(F)F)N(Cc1ccc(-c2ncon2)cc1F)S(=O)(=O)c1ccc(Cl)cc1 [Avagacestat]	0 (compounds with IC50 > 20 μM, percentage inhibition <80% at 20 µM or 50 μM, or percentage enzyme inhibition <50% at 10 µM were labelled as INACTIVE)
CCC(=O)Nc1ccc(N(Cc2ccsc2)C(=O)Cn2nnc3ccccc32)cc1 [ALP-POS-c59291d4-2]	1 (Compounds with IC50 < 10 µM or with a percentage of enzyme inhibition >50% at 10 µM were labelled as ACTIVE)
CC1OC(OCC2OC(OCCc3ccc(O)c(O)c3)C(O)C(OC(=O)C=Cc3ccc(O)c(O)c3)C2O)C(O)C(O)C1O (stereo not shown) [Forsythoside I]	1 (Compounds with IC50 < 10 µM or with a percentage of enzyme inhibition >50% at 10 µM were labelled as ACTIVE)
CCC[C@@]1(CCc2ccccc2)CC(O)=C([C@H](CC)c2cccc(NS(=O)(=O)c3ccc(C(F)(F)F)cn3)c2)C(=O)O1 [Tipranavir]	0 (compounds with IC50 > 20 μM, percentage inhibition <80% at 20 µM or 50 μM, or percentage enzyme inhibition <50% at 10 µM were labelled as INACTIVE)
Cc1c(-c2ccnn2C)cc(C(=O)NCc2ccc(S(C)(=O)=O)cn2)c(=O)n1-c1cccc(C(F)(F)F)c1 [Alvestat]	0 (compounds with IC50 > 20 μM, percentage inhibition <80% at 20 µM or 50 μM, or percentage enzyme inhibition <50% at 10 µM were labelled as INACTIVE)
O=C(C=Cc1ccc(O)c(O)c1)OC1CC(O)(C(=O)O)CC(O)C1OC(=O)C=Cc1ccc(O)c(O)c1 (stereo not shown) [Isochlorogenic acid B]	0 (compounds with IC50 > 20 μM, percentage inhibition <80% at 20 µM or 50 μM, or percentage enzyme inhibition <50% at 10 µM were labelled as INACTIVE)
Nc1nc(NC2CC2)c2ncn([C@H]3C=C[C@@H](CO)C3)c2n1 [Abacavir]	0 (compounds with IC50 > 20 μM, percentage inhibition <80% at 20 µM or 50 μM, or percentage enzyme inhibition <50% at 10 µM were labelled as INACTIVE)
CC(C)Nc1cccnc1N1CCN(C(=O)c2cc3cc(NS(C)(=O)=O)ccc3[nH]2)CC1 [Delavirdine]	0 (compounds with IC50 > 20 μM, percentage inhibition <80% at 20 µM or 50 μM, or percentage enzyme inhibition <50% at 10 µM were labelled as INACTIVE)
O=C1N(Cc2cccc(Cl)c2)CCN1c1nccc2[nH]ncc12 [ALP-POS-91609ae9-3]	1 (Compounds with IC50 < 10 µM or with a percentage of enzyme inhibition >50% at 10 µM were labelled as ACTIVE)
COc1cc(Cl)cc(OC(=O)Nc2cccnc2)c1 [AGN-NEW-891393a6-1]	1 (Compounds with IC50 < 10 µM or with a percentage of enzyme inhibition >50% at 10 µM were labelled as ACTIVE)
